Data from ChEMBL document CHEMBL1201862, “PubChem BioAssay data set” (2004).
Activity calls are given as the source filed them.

Experiments:
[1] = molecular target: T1, Oxysterols receptor LXR-beta (Homo sapiens, UniProt P55055); type: functional, cell-based;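 further: agonist activity at LXR measured by a cell-based luminescence readout across a dose range, run as a counterscreen for daf-12 agonists; HEK293 cells with Gal4-LXR fusion and GAL4-driven luciferase reporter; potency for activation of Gal4-LXR reporter so compounds are agonists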
T1 sequence (P55055 whole entry): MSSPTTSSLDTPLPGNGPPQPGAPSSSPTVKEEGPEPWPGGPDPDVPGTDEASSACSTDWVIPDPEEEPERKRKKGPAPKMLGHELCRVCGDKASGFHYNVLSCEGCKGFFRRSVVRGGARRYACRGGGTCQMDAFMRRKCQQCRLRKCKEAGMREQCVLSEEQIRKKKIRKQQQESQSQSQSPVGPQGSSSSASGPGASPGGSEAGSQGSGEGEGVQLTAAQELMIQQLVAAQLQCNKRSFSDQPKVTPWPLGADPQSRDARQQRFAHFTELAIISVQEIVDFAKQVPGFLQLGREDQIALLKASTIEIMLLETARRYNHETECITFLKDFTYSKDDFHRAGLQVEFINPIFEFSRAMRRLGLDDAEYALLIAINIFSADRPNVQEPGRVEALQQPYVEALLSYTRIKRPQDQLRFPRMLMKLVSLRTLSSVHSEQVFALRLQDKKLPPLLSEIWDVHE

[2] = THP-1 cell cytotoxicity, dose response, cytotoxicity control for non-replicating M. tuberculosis project (AID 489025); type: functional
[3] = viability loss in CEM21 cells – cell-based, CellTiter-Glo luminescence, cherry-picked, cytotoxicity control for viral fusion inhibitor project, dose response (AID 652042); type: functional;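 further: potency for signal decrease meaning cytotoxicity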
[4] = blockers of HIV-1 envelope-mediated cell-cell fusion – cherry-pick, dose response (AID 652057); type: functional, cell-based
[5] = blockers of HIV-1 ZM109 envelope-driven cell-cell fusion – HeLa effector, CEM target cells, luciferase, cherry-pick, dose response (AID 652058); type: functional, cell-based;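 further: luciferase signal from HIV-1 Env mediated cell-cell fusion of effector and target cells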
[6] = off-target signal loss in HeLa-CEM21 co-culture – HeLa F-luc CTL cells, cherry-picked, counter-screen for HIV-1 Env fusion inhibitor project, dose response (AID 652040); type: functional, cell-based;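 further: potency for signal decrease marking cytotoxic or nonspecific inhibition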
[7] = HIV-1 AD8 envelope cell-cell fusion blockers – cherry-pick, dose response (AID 652062); type: functional, cell-based;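 further: luciferase signal from cell-cell fusion driven by HIV-1 clade B AD8 Env; potency is for inhibitors of fusion seen as a drop in luminescence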
Beta-galactosidase = Beta-galactosidase (Escherichia coli, UniProt Q8VNN2); experiment: Dose response counterscreen for EBI2 assay utilizing the enzyme, b-galactosidase.; type: functional
[8] = microbe, parasite or virus in culture; type: functional; conditions: Mycobacterium tuberculosis
[9] = molecular target: T2, Fructose-bisphosphate aldolase (Mycobacterium tuberculosis, UniProt P9WQA3); experiment: Fluorescence-based biochemical high throughput dose response assay for inhibitors of the fructose-bisphosphate aldolase (FBA) of M. tuberculosis.; type: functional
T2 sequence (P9WQA3 whole entry): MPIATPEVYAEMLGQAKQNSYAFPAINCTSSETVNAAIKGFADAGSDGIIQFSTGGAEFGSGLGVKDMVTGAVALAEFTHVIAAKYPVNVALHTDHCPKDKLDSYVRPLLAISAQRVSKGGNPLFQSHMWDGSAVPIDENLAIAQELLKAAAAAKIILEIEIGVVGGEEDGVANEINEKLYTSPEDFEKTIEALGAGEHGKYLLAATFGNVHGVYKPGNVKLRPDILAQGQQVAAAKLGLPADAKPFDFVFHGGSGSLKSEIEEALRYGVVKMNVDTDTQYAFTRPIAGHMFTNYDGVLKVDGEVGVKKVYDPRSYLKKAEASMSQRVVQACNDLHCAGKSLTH

Mu-type opioid receptor = Mu-type opioid receptor (Homo sapiens, UniProt P35372); type: functional, cell-based;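 further: U2OS cells with beta-arrestin recruitment to OPRM1 by beta-gal complementation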
[10] = molecular target: 5-hydroxytryptamine receptor 2A (Mus musculus, UniProt P35363); type: functional, cell-based;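 further: CHO-K1 cells with tagged receptor and beta-arrestin; agonist potency measured as compound-induced activation of the receptor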
[11] = viability loss of HPDE-C7K cells – cell-based, fluorescence, HTS, primary screen (AID 431); type: functional; conditions: Homo sapiens
[12] = HPDE-C7 pancreatic duct cell viability loss – fluorescence, HTS (AID 430); type: functional, cell-based; conditions: Homo sapiens
[13] = Dd2 parasite growth inhibition in erythrocytes – SYBR Green, dry powder samples, set 9, dose response (AID 1159568); type: functional, cell-based
[14] = intracellular Trypanosoma cruzi inhibitors in host cells – cell-based, plate reader, cherry-pick samples, set 3, dose response (AID 651818); type: functional;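 further: compounds incubated with infected cells for about four days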
Streptokinase A = molecular target: T3, Streptokinase A (Streptococcus pyogenes serotype M1, UniProt P10520); experiment: viability-normalized secreted streptokinase activity reduction – plasminogen activation absorbance, OD405, dose response (AID 1914); type: functional, Streptococcus pyogenes M1 GAS;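 further: secreted streptokinase activity via plasminogen activation per viability signal from cell pellet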
T3 sequence (P10520 whole entry): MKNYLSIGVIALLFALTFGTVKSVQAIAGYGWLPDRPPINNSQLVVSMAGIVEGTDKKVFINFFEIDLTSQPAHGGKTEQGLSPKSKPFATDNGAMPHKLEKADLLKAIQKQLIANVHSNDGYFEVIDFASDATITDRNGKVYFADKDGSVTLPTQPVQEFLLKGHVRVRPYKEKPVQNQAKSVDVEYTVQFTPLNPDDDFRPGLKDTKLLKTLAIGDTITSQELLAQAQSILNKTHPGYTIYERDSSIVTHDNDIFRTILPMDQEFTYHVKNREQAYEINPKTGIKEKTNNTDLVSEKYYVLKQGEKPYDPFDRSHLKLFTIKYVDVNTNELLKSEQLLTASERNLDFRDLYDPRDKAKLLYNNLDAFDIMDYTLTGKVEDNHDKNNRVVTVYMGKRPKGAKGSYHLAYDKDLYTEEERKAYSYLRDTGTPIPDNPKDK

[15] = molecular target: Heat shock protein HSP 90-alpha (Homo sapiens, UniProt P07900); type: functional, organism-based
Streptococcus = experiment: GAS UMAA2166 growth inhibition – luminescence, BacTiterGlo, counter-screen for streptokinase expression inhibitor project, dose response (AID 1915); type: functional, organism-based;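 further: potency for reduction of bacterial viability or growth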
[16] = system: Streptococcus sp. 'group A'; experiment: Streptococcus pyogenes SK(-)GAS viability under kanamycin – luminescence, BacTiterGlo, confirmation, counter-screen for streptokinase expression inhibitor project, dose response (AID 1900); type: functional, organism-based
HEK293 [17] = experiment: NOD2 signaling inhibitors in MDP-stimulated cells, cell-based, uHTS, luminescence (AID 2001); type: functional; conditions: Homo sapiens
HEK293 [18] = experiment: cells; type: functional, cell-based; conditions: Homo sapiens
HEK293 [19] = experiment: cells; type: functional, cell-based; conditions: Homo sapiens; remark: listed apart in the source
[20] = molecular target: Nucleotide-binding oligomerization domain-containing protein 2 (Homo sapiens, UniProt Q9HC29); experiment: inhibition of NOD2-driven NF-kB reporter – cell-based, luminescence, uHTS, HEK293 (AID 1566); type: functional
HEK293 [21] = experiment: inhibition of NOD1-driven NF-kB reporter – cell-based, luminescence, uHTS, primary screen (AID 1578); type: functional; conditions: Homo sapiens
HEK293 [22] = experiment: cells; type: functional, cell-based; conditions: Homo sapiens; remark: listed apart in the source
cells [23] = type: functional, cell-based
[24] = molecular target: T4, Trace amine-associated receptor 1 (Homo sapiens, UniProt Q96RJ0); experiment: Fluorescence-based cell-based high throughput dose response assay to identify agonists of the human trace amine associated receptor 1 (TAAR1).; type: functional
T4 sequence (Q96RJ0 whole entry): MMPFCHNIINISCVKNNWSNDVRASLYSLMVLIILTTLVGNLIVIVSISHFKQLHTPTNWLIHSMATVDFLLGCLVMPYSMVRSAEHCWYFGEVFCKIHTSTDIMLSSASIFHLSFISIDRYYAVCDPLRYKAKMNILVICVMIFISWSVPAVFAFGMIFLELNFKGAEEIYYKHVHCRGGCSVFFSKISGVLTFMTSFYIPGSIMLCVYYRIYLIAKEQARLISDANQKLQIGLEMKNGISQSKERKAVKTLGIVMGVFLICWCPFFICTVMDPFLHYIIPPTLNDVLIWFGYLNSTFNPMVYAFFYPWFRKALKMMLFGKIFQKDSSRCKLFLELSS

cells [25] = type: functional, cell-based; remark: listed apart in the source
[26] = molecular target: T4, Trace amine-associated receptor 1; experiment: Counterscreen for agonists of the human trace amine associated receptor 1 (hTAAR1): Fluorescence-based cell-based high throughput dose response assay to identify hTAAR1 agonist that also desensitize TAAR1 receptor response.; type: functional
[27] = molecular target: Induced myeloid leukemia cell differentiation protein Mcl-1 (Homo sapiens, UniProt Q07820); type: functional
[28] = viability loss in HeLa cells – cytotoxicity control for MgcRacGAP inhibitor project, dose response (AID 624300); type: functional
[29] = molecular target: T5, Rac GTPase-activating protein 1 (Homo sapiens, UniProt Q9H0H5); experiment: blockers of MgcRacGAP-driven Rac1 GTP hydrolysis – biochemical, ADP Hunter fluorescence, primary and confirmatory, confirmation (AID 624330); type: functional
T5 sequence (Q9H0H5 whole entry): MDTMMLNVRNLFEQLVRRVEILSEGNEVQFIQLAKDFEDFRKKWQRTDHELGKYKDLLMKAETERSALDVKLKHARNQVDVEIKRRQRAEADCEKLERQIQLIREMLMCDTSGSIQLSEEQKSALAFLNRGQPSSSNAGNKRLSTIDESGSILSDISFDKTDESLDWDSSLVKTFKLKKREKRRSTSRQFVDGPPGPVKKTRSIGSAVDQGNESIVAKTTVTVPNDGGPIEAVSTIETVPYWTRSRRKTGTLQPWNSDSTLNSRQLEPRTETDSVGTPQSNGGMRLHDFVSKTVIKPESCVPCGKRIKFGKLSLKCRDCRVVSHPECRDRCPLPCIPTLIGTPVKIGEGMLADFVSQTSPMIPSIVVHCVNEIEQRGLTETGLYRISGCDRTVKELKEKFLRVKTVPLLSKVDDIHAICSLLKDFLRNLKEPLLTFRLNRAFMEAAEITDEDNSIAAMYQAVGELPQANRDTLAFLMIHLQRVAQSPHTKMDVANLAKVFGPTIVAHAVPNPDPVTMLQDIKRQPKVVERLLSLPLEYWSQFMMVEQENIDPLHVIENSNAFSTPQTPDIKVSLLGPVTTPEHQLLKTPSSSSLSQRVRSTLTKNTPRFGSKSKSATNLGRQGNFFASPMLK

Chain of Mu-type opioid receptor (P35372 whole entry): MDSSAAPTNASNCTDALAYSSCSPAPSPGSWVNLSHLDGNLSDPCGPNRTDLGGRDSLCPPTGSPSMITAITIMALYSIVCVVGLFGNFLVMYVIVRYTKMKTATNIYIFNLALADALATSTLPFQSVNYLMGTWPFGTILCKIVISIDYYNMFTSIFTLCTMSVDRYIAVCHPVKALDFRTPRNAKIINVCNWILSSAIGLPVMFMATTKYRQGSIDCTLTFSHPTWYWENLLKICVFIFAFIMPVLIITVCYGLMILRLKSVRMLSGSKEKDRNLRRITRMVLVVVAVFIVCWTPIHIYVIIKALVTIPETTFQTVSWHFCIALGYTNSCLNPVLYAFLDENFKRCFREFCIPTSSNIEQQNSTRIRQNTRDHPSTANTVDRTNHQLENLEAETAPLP
Chain of 5-hydroxytryptamine receptor 2A (P35363 whole entry): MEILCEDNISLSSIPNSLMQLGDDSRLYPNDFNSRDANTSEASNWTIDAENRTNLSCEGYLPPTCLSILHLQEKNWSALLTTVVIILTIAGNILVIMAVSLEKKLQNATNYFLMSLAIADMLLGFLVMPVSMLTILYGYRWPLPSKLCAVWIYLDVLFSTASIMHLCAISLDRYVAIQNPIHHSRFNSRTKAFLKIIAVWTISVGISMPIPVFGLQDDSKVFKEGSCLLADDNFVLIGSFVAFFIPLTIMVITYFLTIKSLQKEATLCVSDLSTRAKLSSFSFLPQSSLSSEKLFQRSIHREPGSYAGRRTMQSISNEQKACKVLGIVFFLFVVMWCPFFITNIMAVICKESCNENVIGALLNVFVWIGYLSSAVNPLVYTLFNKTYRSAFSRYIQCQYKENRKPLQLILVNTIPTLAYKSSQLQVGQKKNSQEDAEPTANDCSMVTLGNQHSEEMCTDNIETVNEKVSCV
Chain of Beta-galactosidase (Q8VNN2 whole entry): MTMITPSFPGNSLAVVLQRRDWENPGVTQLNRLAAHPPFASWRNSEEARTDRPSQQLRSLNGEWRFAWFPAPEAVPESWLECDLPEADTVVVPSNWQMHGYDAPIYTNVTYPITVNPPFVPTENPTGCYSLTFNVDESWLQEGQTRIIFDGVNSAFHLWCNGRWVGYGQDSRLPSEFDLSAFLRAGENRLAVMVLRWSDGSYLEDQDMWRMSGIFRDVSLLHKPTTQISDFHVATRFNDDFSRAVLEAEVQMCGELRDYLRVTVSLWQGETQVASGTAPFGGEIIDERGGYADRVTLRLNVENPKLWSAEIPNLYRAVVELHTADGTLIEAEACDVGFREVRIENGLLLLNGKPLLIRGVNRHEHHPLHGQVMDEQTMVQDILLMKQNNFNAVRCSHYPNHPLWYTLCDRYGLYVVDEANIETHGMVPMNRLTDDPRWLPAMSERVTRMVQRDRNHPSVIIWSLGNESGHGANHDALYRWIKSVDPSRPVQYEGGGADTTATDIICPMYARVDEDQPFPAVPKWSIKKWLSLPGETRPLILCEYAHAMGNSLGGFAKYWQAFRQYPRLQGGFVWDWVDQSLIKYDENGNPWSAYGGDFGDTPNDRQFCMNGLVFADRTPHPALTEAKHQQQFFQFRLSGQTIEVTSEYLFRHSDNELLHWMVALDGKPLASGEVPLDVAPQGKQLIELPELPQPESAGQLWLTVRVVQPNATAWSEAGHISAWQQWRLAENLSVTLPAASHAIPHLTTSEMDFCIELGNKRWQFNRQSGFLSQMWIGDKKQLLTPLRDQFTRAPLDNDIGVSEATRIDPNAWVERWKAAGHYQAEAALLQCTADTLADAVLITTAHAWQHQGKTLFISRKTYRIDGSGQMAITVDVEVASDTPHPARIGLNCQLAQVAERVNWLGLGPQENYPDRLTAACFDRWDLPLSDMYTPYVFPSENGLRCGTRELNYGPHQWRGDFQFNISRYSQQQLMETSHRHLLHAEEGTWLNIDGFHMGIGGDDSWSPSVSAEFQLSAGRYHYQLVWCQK
Chain of Induced myeloid leukemia cell differentiation protein Mcl-1 (Q07820 whole entry): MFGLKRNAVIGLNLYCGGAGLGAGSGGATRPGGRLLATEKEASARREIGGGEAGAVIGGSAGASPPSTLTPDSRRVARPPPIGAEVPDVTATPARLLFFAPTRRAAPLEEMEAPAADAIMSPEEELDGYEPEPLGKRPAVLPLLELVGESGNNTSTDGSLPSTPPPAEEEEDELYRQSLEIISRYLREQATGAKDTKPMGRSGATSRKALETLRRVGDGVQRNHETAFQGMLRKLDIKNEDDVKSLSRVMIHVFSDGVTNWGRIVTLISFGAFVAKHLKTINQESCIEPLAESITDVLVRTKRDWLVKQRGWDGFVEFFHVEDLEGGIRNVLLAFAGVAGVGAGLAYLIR
Chain of Nucleotide-binding oligomerization domain-containing protein 2 (Q9HC29 whole entry, the tested form may be a part): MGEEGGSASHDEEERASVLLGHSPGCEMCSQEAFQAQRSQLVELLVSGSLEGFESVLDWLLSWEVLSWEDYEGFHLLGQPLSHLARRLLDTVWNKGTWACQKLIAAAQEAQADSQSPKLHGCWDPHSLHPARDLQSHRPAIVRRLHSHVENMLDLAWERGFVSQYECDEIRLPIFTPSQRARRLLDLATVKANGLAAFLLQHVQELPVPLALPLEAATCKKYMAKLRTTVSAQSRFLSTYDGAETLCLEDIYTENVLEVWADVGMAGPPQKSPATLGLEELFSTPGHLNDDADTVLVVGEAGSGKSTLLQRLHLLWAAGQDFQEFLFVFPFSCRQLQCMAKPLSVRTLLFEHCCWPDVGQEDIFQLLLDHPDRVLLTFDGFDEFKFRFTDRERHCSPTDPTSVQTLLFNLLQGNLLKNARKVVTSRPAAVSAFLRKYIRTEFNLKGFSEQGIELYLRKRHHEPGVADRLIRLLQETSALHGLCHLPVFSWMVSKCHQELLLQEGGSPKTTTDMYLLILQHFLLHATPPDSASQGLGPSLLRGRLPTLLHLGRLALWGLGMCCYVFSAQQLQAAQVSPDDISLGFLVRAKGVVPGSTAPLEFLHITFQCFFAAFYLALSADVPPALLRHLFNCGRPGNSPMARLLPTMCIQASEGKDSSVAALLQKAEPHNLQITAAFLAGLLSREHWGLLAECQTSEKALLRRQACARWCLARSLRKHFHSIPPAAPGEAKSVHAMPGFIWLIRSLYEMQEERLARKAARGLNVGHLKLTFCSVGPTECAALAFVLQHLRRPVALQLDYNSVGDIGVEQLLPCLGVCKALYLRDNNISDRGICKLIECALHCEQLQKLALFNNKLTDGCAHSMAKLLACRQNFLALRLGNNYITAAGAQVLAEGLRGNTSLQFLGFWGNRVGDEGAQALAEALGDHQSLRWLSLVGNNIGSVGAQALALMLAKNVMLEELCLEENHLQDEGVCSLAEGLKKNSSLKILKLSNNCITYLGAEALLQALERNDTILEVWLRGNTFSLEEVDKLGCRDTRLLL

Cc1ccnc(NC(=O)CCNS(=O)(=O)c2ccc(C)c(C)c2)c1
EC50 [1]: > 67.6 µM (inactive)

Cc1cc(OCCOCCNCc2ccccc2)ccc1C(C)C
CC50 [2]: > 40 µM (active) | AC50 [3]: 45.2 µM (active) | AC50 [4]: 1.55 µM (active) | AC50 [5]: 1.86 µM (active) | AC50 [6]: 2.26 µM (active) | AC50 [7]: 4.8 µM (active)

COc1cc2c(cc1NC(=S)NC(=O)/C=C/c1ccco1)oc1ccccc12
IC50 (Beta-galactosidase): > 80 µM (inactive)

Cc1ccc(C(=O)CC(SCC(=O)O)c2ccc([N+](=O)[O-])cc2)cc1 (stereo not drawn)
CC50 [8]: 30.6 µM (active)

CN(C)C=O.O=C(/C=C/c1cccc(F)c1)Nc1ccc(S(=O)(=O)Nc2ncccn2)cc1
IC50 [9]: > 9.99 µM (inactive)

O=C(c1cccc(C(=O)N(c2ccccn2)C2CCCCC2)c1)N(c1ccccn1)C1CCCCC1
EC50 (Mu-type opioid receptor): 92.5 µM (inactive) | EC50 [10]: 76.1 µM (inactive)

O=C(COc1ccc(Br)cc1)N1CCN(Cc2ccc3c(c2)OCO3)CC1
IC50 (Beta-galactosidase): > 80 µM (inactive)

C/C(=N/NC(=O)c1cc(C(C)C)n[nH]1)c1cccs1
EC50 [1]: > 67.6 µM (inactive)

CCOC(=O)C1(CCOc2ccccc2)CCN(C(=O)c2ccc(-n3cccn3)cc2)CC1
IC50 (Beta-galactosidase): > 80 µM (inactive)

COc1cc(/C=N/n2c(-c3ccc4c(c3)NC(=O)CO4)cs/c2=N\c2cccc(C)c2)ccc1O
CC50 [8]: 25 µM (active)

O=C(Oc1cccc2cccnc12)c1cccs1
EC50 [11]: 4.38 µM (active) | EC50 [12]: 3.46 µM (active)

COc1cccc(-n2cc(CNCc3cn(C)nc3-c3ccccc3F)cn2)c1
EC50 (Mu-type opioid receptor): 92.5 µM (inactive) | EC50 [10]: 0.772 µM (active)

C[C@@H]1CN([C@@H](C)CO)C(=O)c2cccc(NC(=O)c3ccc(-c4nccs4)cc3)c2O[C@H]1CN(C)C(=O)Nc1ccc(C(F)(F)F)cc1
AC50 [13]: 6.3 µM (active) | AC50 [14]: 3.55 µM (active)

COc1ccc(C2Nc3ccccc3C(=O)N2NS(C)(=O)=O)c(OC)c1 (stereo not drawn)
IC50 [9]: > 1.11 µM (active)

Cc1cc2n(n1)C(c1c[nH]c3ccccc13)Nc1ccccc1-2 (stereo not drawn)
EC50 [11]: 12.9 µM (active) | EC50 (Streptokinase A): 18.1 µM (active) | EC50 [12]: 12 µM (active) | AC50 [15]: 6.08 µM (active) | EC50 (Streptococcus): > 150 µM (not active) | EC50 [16]: 8.99 µM (active)

Cc1ccc(-c2csc(N3CCN(CCCn4c(-c5ccncc5)nc5ccccc54)CC3)n2)cc1
IC50 (HEK293 [17]): 4.62 µM (active) | IC50 (HEK293 [18]): 4.3 µM (active) | IC50 (HEK293 [19]): > 20 µM (inactive) | CC50 [8]: > 40 µM (active) | EC50 [20]: 12.3 µM (active) | EC50 (HEK293 [21]): 6.11 µM (active) | IC50 (HEK293 [22]): 11.4 µM (active)

Nc1sc2c(c1C(=O)NCCc1ccccc1)CCCC2
EC50 (cells [23]): > 29.9 µM (inactive) | EC50 [24]: 1.35 µM (active) | IC50 (cells [25]): > 29.9 µM (inactive) | IC50 [26]: 4.88 µM (active)

Clc1cccc(N/N=C/c2ccc(N3CCOCC3)s2)c1
IC50 [27]: 13.4 µM (active) | CC50 [28]: 83.7 µM (active) | IC50 [29]: 71.3 µM (active)

CCCC[C@@H]1CNCCN1CCc1cccc2ccccc12
EC50 (cells [23]): > 29.9 µM (inactive) | EC50 [24]: 4.01 µM (active) | IC50 (cells [25]): > 29.9 µM (inactive) | IC50 [26]: 3.52 µM (active)

O=[N+]([O-])c1ccc2c(c1)Nc1nc3ccccc3nc1N2
EC50 [1]: > 67.5 µM (inactive)

O=C(C[C@H]1C[C@@H]2c3cc(NC(=O)c4ccc5c(c4)OCO5)ccc3O[C@@H]2[C@@H](CO)O1)NCc1ccc(Oc2ccccc2)cc1
AC50 [13]: 28.6 µM (active)

CCOC(=O)N1CCN(CC(O)COC2CC(C)CCC2C(C)C)CC1 (stereo not drawn)
IC50 [9]: > 9.99 µM (inactive)

CN(C)c1ccc2c(c1)[C@@H]1C[C@@H](CC(=O)NC3CCCCC3)O[C@@H](CO)[C@@H]1O2
AC50 [13]: 20.2 µM (active)

Oc1ccc(CN2CCN(c3ncccn3)CC2)cc1
EC50 (Mu-type opioid receptor): 92.4 µM (inactive) | EC50 [10]: 0.496 µM (active)
